Experimental data: BindingDB's records for doi:10.1021/acs.jmedchem.2c01521 (Merck, 2023)

Target: cAMP and cAMP-inhibited cGMP 3',5'-cyclic phosphodiesterase 10A (Homo sapiens, UniProt Q9Y233)
Test: Inhibition of human PDE10A2 transfected in human AD293 cells cytosolic fraction using cAMP as substrate by fluorescence polarization assay

Chain of cAMP and cAMP-inhibited cGMP 3',5'-cyclic phosphodiesterase 10A (Q9Y233 whole entry): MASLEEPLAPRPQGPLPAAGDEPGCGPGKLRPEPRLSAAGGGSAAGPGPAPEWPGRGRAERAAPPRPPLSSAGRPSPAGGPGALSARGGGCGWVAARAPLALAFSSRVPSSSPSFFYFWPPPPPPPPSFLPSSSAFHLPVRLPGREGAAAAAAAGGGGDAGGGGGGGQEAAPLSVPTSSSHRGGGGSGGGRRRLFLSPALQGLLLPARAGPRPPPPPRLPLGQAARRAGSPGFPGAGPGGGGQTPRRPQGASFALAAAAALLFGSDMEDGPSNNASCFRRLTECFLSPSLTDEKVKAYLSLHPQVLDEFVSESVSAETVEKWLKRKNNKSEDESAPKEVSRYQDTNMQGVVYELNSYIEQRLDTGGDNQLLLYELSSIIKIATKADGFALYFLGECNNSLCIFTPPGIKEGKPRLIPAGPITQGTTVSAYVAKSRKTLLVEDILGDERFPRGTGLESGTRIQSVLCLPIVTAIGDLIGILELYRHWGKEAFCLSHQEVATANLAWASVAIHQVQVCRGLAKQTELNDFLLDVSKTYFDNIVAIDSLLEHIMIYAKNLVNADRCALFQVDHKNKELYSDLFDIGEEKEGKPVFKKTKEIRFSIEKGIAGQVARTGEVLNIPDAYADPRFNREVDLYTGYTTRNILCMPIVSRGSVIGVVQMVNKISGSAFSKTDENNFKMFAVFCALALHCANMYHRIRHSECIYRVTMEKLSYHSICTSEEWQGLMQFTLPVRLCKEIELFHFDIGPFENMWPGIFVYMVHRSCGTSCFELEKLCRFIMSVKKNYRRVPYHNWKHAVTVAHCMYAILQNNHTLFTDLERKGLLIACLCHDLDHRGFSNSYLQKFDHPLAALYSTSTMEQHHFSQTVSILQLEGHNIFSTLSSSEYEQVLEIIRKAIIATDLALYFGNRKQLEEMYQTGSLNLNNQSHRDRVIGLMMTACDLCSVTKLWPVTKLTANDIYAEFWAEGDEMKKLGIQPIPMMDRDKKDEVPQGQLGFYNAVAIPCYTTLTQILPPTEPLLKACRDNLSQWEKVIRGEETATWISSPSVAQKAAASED

Cc1cnc(OC[C@H]2C[C@@H]2c2ccccn2)cc1NCc1cnn(C)c1
Ki: 7.8 nM
